Reference: patent publication US10472347B2, “Aminopyrazine compounds with A2A antagonist properties” (Merck Sharp & Dohme Corp., priority 2014, dated 2019)

target: T1, human A2a receptor (Homo sapiens, UniProt P29274); assay: A2a competition binding assay, Scintillation Proximity technology; settings: membranes from HEK293 cells expressing human A2a receptor; Ki by Cheng-Prusoff equation
T1 construct: purchased Perkin-Elmer RBHA2AM400UA; host or cells: HEK293 cells (membranes)
Summary of the method: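 SPA competition: 0.5 nM tritiated pyrazolotriazolopyrimidine ligand displaced by compound at 3000 to 0.15 nM, 1 h room temperature, human A2a HEK293 membranes pretreated with adenosine deaminase, PBS/10 mM MgCl2 buffer. CGS15943 1 μM defined non-specific binding; EC50 converted to Ki via Cheng-Prusoff.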

T1 sequence (P29274 whole entry): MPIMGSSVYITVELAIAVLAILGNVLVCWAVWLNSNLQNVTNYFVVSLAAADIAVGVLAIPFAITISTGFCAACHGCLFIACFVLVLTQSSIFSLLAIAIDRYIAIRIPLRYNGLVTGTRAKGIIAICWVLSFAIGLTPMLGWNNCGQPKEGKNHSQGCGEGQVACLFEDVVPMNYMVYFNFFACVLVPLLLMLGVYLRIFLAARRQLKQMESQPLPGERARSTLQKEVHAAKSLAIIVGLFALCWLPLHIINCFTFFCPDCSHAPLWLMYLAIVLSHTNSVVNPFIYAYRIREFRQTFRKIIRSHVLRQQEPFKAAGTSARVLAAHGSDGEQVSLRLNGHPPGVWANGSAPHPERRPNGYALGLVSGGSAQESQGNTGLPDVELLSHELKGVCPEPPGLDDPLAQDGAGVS

First: Cc1nc(C(=O)NCc2nn(C)cc2C(F)F)c(N)nc1-c1ncco1 [Ex-194, 3-amino-N-{[4-(difluoromethyl)-1-methyl-1H-pyrazol-3-yl]methyl}-6-methyl-5-(1,3-oxazol-2-yl)pyrazine-2-carboxamide]
Second: Cc1nc(C(=O)NCc2nccc3ncn(C)c23)c(N)nc1-c1ncco1 [Ex-198, 3-amino-6-methyl-N-[(3-methyl-3H-imidazo[4,5-c]pyridin-4-yl)methyl]-5-(1,3-oxazol-2-yl)pyrazine-2-carboxamide]
The Ki of the first is 5.3-fold lower: 1.65 nM for the first, 8.77 nM for the second.

`Cc1nccnc1CNC(=O)c1nc(C)c(-c2ncco2)nc1N` [Ex-195, 3-amino-6-methyl-N-[(3-methylpyrazin-2-yl)methyl]-5-(1,3-oxazol-2-yl)pyrazine-2-carboxamide] and `Cc1nc(C(=O)NCc2nccnc2C(F)(F)F)c(N)nc1-c1ncco1` [Ex-215, 3-amino-6-methyl-5-(1,3-oxazol-2-yl)-N-{[3-(trifluoromethyl)pyrazin-2-yl]methyl}pyrazine-2-carboxamide] are within 1.5-fold of each other in Ki: 1.71 nM for the first, 1.44 nM for the second.

Compared with `CCc1cc(C(F)(F)F)cnc1CNC(=O)c1nc(C)c(-c2ncco2)nc1N` [Ex-196, 3-amino-N-{[3-ethyl-5-(trifluoromethyl)pyridin-2-yl]methyl}-6-methyl-5-(1,3-oxazol-2-yl)pyrazine-2-carboxamide], `Cc1nc(C(=O)NCc2ncccc2CF)c(N)nc1-c1ncco1` [Ex-224, 3-amino-N-{[3-(fluoromethyl)pyridin-2-yl]methyl}-6-methyl-5-(1,3-oxazol-2-yl)pyrazine-2-carboxamide] is 13-fold lower in Ki: 2.53 nM for the first, 0.201 nM for the second.

`Cc1nc(C(=O)NCc2ncc(C3CC3)cn2)c(N)nc1-c1ncco1` [Ex-197, 3-amino-N-[(5-cyclopropylpyrimidin-2-yl)methyl]-6-methyl-5-(1,3-oxazol-2-yl)pyrazine-2-carboxamide] and `CCc1cnc(CNC(=O)c2nc(C)c(-c3ncco3)nc2N)nc1` [Ex-199, 3-amino-N-[(5-ethylpyrimidin-2-yl)methyl]-6-methyl-5-(1,3-oxazol-2-yl)pyrazine-2-carboxamide] are within 1.5-fold of each other in Ki: 6.37 nM for the first, 9.42 nM for the second.

Compared with `Cc1nc(C(=O)N[C@H]2CCc3cc(F)ccc32)c(N)nc1-c1ncco1` [Ex-200, 3-amino-N-[(1S)-5-fluoro-2,3-dihydro-1H-inden-1-yl]-6-methyl-5-(1,3-oxazol-2-yl)pyrazine-2-carboxamide], `Cc1nc(C(=O)N[C@H]2CCc3ccc(F)cc32)c(N)nc1-c1ncco1` [Ex-201, 3-amino-N-[(1S)-6-fluoro-2,3-dihydro-1H-inden-1-yl]-6-methyl-5-(1,3-oxazol-2-yl)pyrazine-2-carboxamide] is 23-fold lower in Ki: 14.7 nM for the first, 0.633 nM for the second.

Going from `Cc1nc(C(=O)N[C@@H]2CCC[C@H]2O)c(N)nc1-c1ncco1` [Ex-202, 3-amino-N-[(1R,2R)-2-hydroxycyclopentyl]-6-methyl-5-(1,3-oxazol-2-yl)pyrazine-2-carboxamide] to `Cc1nc(C(=O)N[C@H]2CCC[C@@H]2O)c(N)nc1-c1ncco1` [Ex-211, 3-amino-N-[(1S,2S)-2-hydroxycyclopentyl]-6-methyl-5-(1,3-oxazol-2-yl)pyrazine-2-carboxamide], the Ki rises from 2.22 nM to 7.37 nM (3.3-fold).

`Cc1nc(C(=O)N[C@H]2CCC[C@H]2F)c(N)nc1-c1ncco1` [Ex-203, 3-amino-N-[(1S,2R)-2-fluorocyclopentyl]-6-methyl-5-(1,3-oxazol-2-yl)pyrazine-2-carboxamide] and `Cc1nc(C(=O)N[C@@H]2CCC[C@H]2F)c(N)nc1-c1ncco1` [Ex-206, 3-amino-N-[(1R,2R)-2-fluorocyclopentyl]-6-methyl-5-(1,3-oxazol-2-yl)pyrazine-2-carboxamide] are within 1.5-fold of each other in Ki: 3.48 nM for the first, 3.72 nM for the second.

Going from `Cc1nc(C(=O)N[C@@H]2CCC[C@H]2N(C)C)c(N)nc1-c1ncco1` [Ex-204, 3-amino-N-[(1R,2R)-2-(dimethylamino)cyclopentyl]-6-methyl-5-(1,3-oxazol-2-yl)pyrazine-2-carboxamide] to `Cc1nc(C(=O)NC2CCCC2F)c(N)nc1-c1ncco1` (stereo not drawn) [Ex-210, 3-amino-N-(2-fluorocyclopentyl)-6-methyl-5-(1,3-oxazol-2-yl)pyrazine-2-carboxamide], the Ki falls from 1500 nM to 1.42 nM (1100-fold). The second binds more tightly here.

Compared with `Cc1nc(C(=O)N(C)[C@@H]2CCC[C@H]2O)c(N)nc1-c1ncco1` [Ex-205, 3-amino-N-[(1R,2R)-2-hydroxycyclopentyl]-N,6-dimethyl-5-(1,3-oxazol-2-yl)pyrazine-2-carboxamide], `Cc1nc(C(=O)N[C@@H]2CCC[C@@H]2O)c(N)nc1-c1ncco1` [Ex-212, 3-amino-N-[(1R,2S)-2-hydroxycyclopentyl]-6-methyl-5-(1,3-oxazol-2-yl)pyrazine-2-carboxamide] is 3.9-fold lower in Ki: 385 nM for the first, 98.9 nM for the second. The second binds more tightly here.

First: Cc1nc(C(=O)N[C@H]2[C@H](C)CC[C@H]2O)c(N)nc1-c1ncco1 [Ex-207, 3-amino-N-[(1S,2R,5R)-2-hydroxy-5-methylcyclopentyl]-6-methyl-5-(1,3-oxazol-2-yl)pyrazine-2-carboxamide]
Second: Cc1nc(C(=O)N[C@@H]2C[C@H]3CC[C@@H]2C3)c(N)nc1-c1ncco1 [Ex-213, 3-amino-N-[(1R,2R,4S)-bicyclo[2.2.1]hept-2-yl]-6-methyl-5-(1,3-oxazol-2-yl)pyrazine-2-carboxamide]
The Ki of the first is 7-fold higher: 2.92 nM for the first, 0.42 nM for the second. The second binds more tightly here.

Going from `C#CC[C@H]1CCC[C@H]1NC(=O)c1nc(C)c(-c2ncco2)nc1N` [Ex-208, 3-amino-6-methyl-5-(1,3-oxazol-2-yl)-N-[(1R,2R)-2-prop-2-yl-1-ylcyclopentyl]pyrazine-2-carboxamide] to `C#C[C@H]1CCC[C@@H]1NC(=O)c1nc(C)c(-c2ncco2)nc1N` [Ex-209, 3-amino-N-[(1S,2R)-2-ethynylcyclopentyl]-6-methyl-5-(1,3-oxazol-2-yl)pyrazine-2-carboxamide], the Ki rises from 0.982 nM to 2.97 nM (3-fold).

Compared with `Cc1nc(C(=O)NCc2nccc3c2ccn3C)c(N)nc1-c1ncco1` [Ex-214], `Cc1nc(C(=O)NCc2cccc3c2ncn3C)c(N)nc1-c1ncco1` [Ex-218, 3-amino-6-methyl-N-[(1-methyl-1H-benzimidazol-4-yl)methyl]-5-(1,3-oxazol-2-yl)pyrazine-2-carboxamide] is 2.2-fold lower in Ki: 0.689 nM for the first, 0.309 nM for the second. The second binds more tightly here.

Compared with `CCn1cc2cccc(CNC(=O)c3nc(C)c(-c4ncco4)nc3N)c2n1` [Ex-216, 3-amino-N-[(2-ethyl-2H-indazol-7-yl)methyl]-6-methyl-5-(1,3-oxazol-2-yl)pyrazine-2-carboxamide], `Cc1nc(C(=O)NCc2cccc3ncn(C)c23)c(N)nc1-c1ncco1` [Ex-219, 3-amino-6-methyl-N-[(1-methyl-1H-benzimidazol-7-yl)methyl]-5-(1,3-oxazol-2-yl)pyrazine-2-carboxamide] is 300-fold higher in Ki: 0.123 nM for the first, 36.5 nM for the second.

Going from `Cc1nc(C(=O)NCc2cccc3c2ccn3CC(F)F)c(N)nc1-c1ncco1` [Ex-217, 3-amino-N-{[1-(2,2-difluoroethyl)-1H-indol-4-yl]methyl}-6-methyl-5-(1,3-oxazol-2-yl)pyrazine-2-carboxamide] to `Cc1nc(C(=O)NCc2ncccc2CO)c(N)nc1-c1ncco1` [Ex-225, 3-amino-N-{[3-(hydroxymethyl)pyridin-2-yl]methyl}-6-methyl-5-(1,3-oxazol-2-yl)pyrazine-2-carboxamide], the Ki falls from 1.4 nM to 0.178 nM (7.9-fold).

Compared with `Cc1nc(C(=O)N[C@H]2CCc3cc(Cl)ccc32)c(N)nc1-c1ncco1` [Ex-222], `Cc1nc(C(=O)NC2CC(O)c3cccnc32)c(N)nc1-c1ncco1` (stereo not drawn) [Ex-223, 3-amino-N-(5-hydroxy-6,7-dihydro-5H-cyclopenta[b]pyridin-7-yl)-6-methyl-5-(1,3-oxazol-2-yl)pyrazine-2-carboxamide] is 3.1-fold lower in Ki: 9.22 nM for the first, 2.98 nM for the second. The second binds more tightly here.
